Measured values reported in patent US8569383B2, “Utilization of rhinologically active substances” (Symrise AG, priority 2000, dated 2013).

Assay: Sensory test of toothpaste with eucalyptus menthol type flavoring by trained expert panel
Type: in vivo
Details: compared with 1-menthyl methyl ether
Method: Production of a Toothpaste Flavoring of the Eucalyptus Menthol Type, Using Menthyl Methyl Ether
The following were mixed:
In a second mixture batch, the 1,8-cineole (eucalyptol) content was replaced by 1-menthyl methyl ether. Both flavorings are incorporated at a concentration of 1.3% by weight into a standard toothpaste mix based on silicic acid. Both types of toothpaste were tested under conditions of practice by an expert panel trained in sensory testing.

Row | Compound | sensory effects when used instead of 1-menthyl methyl ether
1 | COC(C)C1CCCC(C)(C)C1 (stereo not drawn) [1-(3,3-Dimethylcyclohexyl)ethyl methyl ether] | Comparable effects
2 | COC1CC(C)CC(C)(C)C1 (stereo not drawn) [3,3,5-trimethylcyclohexyl methyl ether] | Comparable effects
3 | C=C(C)C1CCC(C)CC1OC (stereo not drawn) [isopulegyl methyl ether, Isopulegyl methyl ether] | Comparable effects
